# Measurements published in patent EP1608360B1, “SYNERGISTIC HEPATOPROTECTIVE COMPOSITION AND A METHOD THEREOF” (COUNCIL OF SCIENTIFIC AND INDUSTRIAL RESEARCH, priority 2003, dated 2004).
# “And” between values parts separate entries of the source, which are not always exact repeats. Equal values may be shown once. Read-outs that look alike come from different tables or passages of the source.
# What was measured:
# [1] = system: paracetamol (APAP) induced hepatic injury; experiment: Hepatoprotective activity (in vivo) against paracetamol (APAP) induced hepatic injury in mice, prophylactic study (Table 1); conditions: 50 mg/kg p.o. + APAP
# Description: All the list materials were administered P.O. routes in a uniform dose level of 50 mg kg-1. Formulation is extremely safe having a therapeutic index of > 40. No mortality was recorded upto a dose of 2g-kg-1 p.o. in mice.
# • Fig.1 Low Power view 10 X of bridging necroses • Fig.2 High Power view 40X of bridging necroses • Fig.3 High Power view 40X of centrilobular necrosis • Fig.4 Lower Power view 10X of centrilobular necrosis • Fig.5 Effect of paracetamol on liver when given along with high doses of hepatoprotective formulations • Fig.6 Ballooning degeneration of cells along with cytoplasmic rarefaction clearing Table 1: Hepatoprotective activity (in vivo) of synergistic formulation and Silymarin agains paracetamol (APAP) induced hepatic injury in mice2. (prophylactic study)
# [2] = system: Acetaminophen (APAP) induced hepatic injury; experiment: Hepatoprotective activity (in vivo), pre-treatment, diethyl-ether inhalation plus Acetaminophen (APAP), prophylactic study (Table 4); parameters: species or system Mice: Swiss albino; conditions: 50 mg/kg p.o. at 72h, 48h, 24h, 1h before diethyl-ether and 1h after APAP 200mg/kg i.p.
# Description: Table-4: Hepatoprotective activity (in vivo) of TCA and silymarin (Pre-treatment) fed at 72h, 48h, 24h, 1h before inhalation of diethyl - ether and 1h after Acetaminophen (APAP) 200mg/kg given i.p. 6h after exposure to diethyl - ether (prophylactic study).
# [3] = After 72 hrs; cited from earlier work
# [4] = system: Paracetamol (APAP) induced hepatic injury; format: in vivo; conditions: Table-2
# Description: […] Formulation is extremely safe having a therapeutic index of > 40. No mortality was recorded upto a dose of 2g-kg-1 p.o. in mice.
# Table-2: Hepatoprotective potential of Andrographolide (AP) against Paracetamol (APAP) induced hepatic injury in Rodents (prophylactic). […]
# [5] = 6.25 mg kg^-1 + APAP, prophylactic
# [6] = 12.5 mg kg^-1 + APAP, prophylactic
# [7] = 25 mg kg^-1 + APAP, prophylactic
# [8] = 50 mg kg^-1 + APAP, prophylactic
# [9] = 50 mg kg^-1 + APAP, prophylactic, listed as Andrographolide
# [10] = 50 mg kg^-1 + APAP, prophylactic, listed as andrographolide
# [11] = 50 mg kg^-1 only (per se), no APAP
# [12] = 100 mg kg^-1 + APAP, prophylactic
compound,measurement,setting,value
"CCCCCCCC/C=C/CCCCCCCCCCCCCC(=O)O [TCA, trans-tetracos-15-enoic acid]","Hepatic Glutathione, percent hepatoprotective activity",[1],53.15%
same,"Hepatic Lipid peroxidation, percent hepatoprotective activity",[1],64.15%
same,"Serum ALP, percent hepatoprotective activity",[1],82.35%
same,"Serum GOT, percent hepatoprotective activity",[1],62.00%
same,"Serum GPT, percent hepatoprotective activity",[1],75.00%
same,"Serum Triglycerides, percent hepatoprotective activity",[1],66.45%
same,Hepatic Lipid peroxidation,[2],55.48 n moles MDA/g liver
same,Serum ALP,[2],52.96 µ mole of p-nitrophenol formed/min/ L
same,Serum Bilirubin,[2],56.35 mg %
same,Serum GOT,[2],54.92 Units
same,Serum GPT,[2],57.99 Units
same,Serum Triglycerides,[2],66.05 mg %
same,Serum ALP,[2]; listed as t-tca,52.96 µ mole of p-nitrophenol formed
"C=C1CC[C@@H]2[C@](C)(CO)[C@H](O)CC[C@@]2(C)[C@@H]1C/C=C1/C(=O)OC[C@H]1O [AP, andrographolide]","excreted, mostly by urinary excretion",[3],~90%
same,Hepatic GSH (glutathione),[4]; [5],2.85±0.19 µ mole GSH/g liver
same,"Hepatic GSH, percent hepatoprotective activity",[4]; [5],(17.40) %
same,Hepatic LP (lipid peroxidation),[4]; [5],58.96±2.04 n mole MDA/g liver
same,"Hepatic LP, percent hepatoprotective activity",[4]; [5],(10.61) %
same,Hepatic Protein,[4]; [5],133.20±5.39 mg %
same,"Hepatic Protein, percent hepatoprotective activity",[4]; [5],(6.75) %
same,Serum ALP,[4]; [5],55.84±2.27 µ mole of p-nitrophenol formed /min/L
same,"Serum ALP, percent hepatoprotective activity",[4]; [5],(18.49) %
same,Serum Albumin,[4]; [5],3.10±0.08 g %
same,"Serum Albumin, percent hepatoprotective activity",[4]; [5],(32.84) %
same,Serum GOT,[4]; [5],992.69±66.36 Units
same,"Serum GOT, percent hepatoprotective activity",[4]; [5],(14.54) %
same,Serum GPT,[4]; [5],1224.99±63.65 Units
same,"Serum GPT, percent hepatoprotective activity",[4]; [5],(20.76) %
same,Serum LDH,[4]; [5],1454.48±66.02 units
same,"Serum LDH, percent hepatoprotective activity",[4]; [5],(25.45) %
same,Serum TG,[4]; [5],63.92±2.11 mg %
same,"Serum TG, percent hepatoprotective activity",[4]; [5],(24.17) %
same,Hepatic GSH (glutathione),[4]; [6],3.78±0.19 µ mole GSH/g liver
same,"Hepatic GSH, percent hepatoprotective activity",[4]; [6],(40.19) %
same,Hepatic LP (lipid peroxidation),[4]; [6],53.10±2.07 n mole MDA/g liver
same,"Hepatic LP, percent hepatoprotective activity",[4]; [6],(46.23) %
same,Hepatic Protein,[4]; [6],141.36±4.25 mg %
same,"Hepatic Protein, percent hepatoprotective activity",[4]; [6],(23.52) %
same,Serum ALP,[4]; [6],49.41±1.35 µ mole of p-nitrophenol formed /min/L
same,"Serum ALP, percent hepatoprotective activity",[4]; [6],(37.13) %
same,Serum Albumin,[4]; [6],3.29±0.15 g %
same,"Serum Albumin, percent hepatoprotective activity",[4]; [6],(47.02) %
same,Serum GOT,[4]; [6],816.54±47.10 Units
same,"Serum GOT, percent hepatoprotective activity",[4]; [6],(32.07) %
same,Serum GPT,[4]; [6],1051.99±46.30 Units
same,"Serum GPT, percent hepatoprotective activity",[4]; [6],(33.12) %
same,Serum LDH,[4]; [6],1255.65±61.32 units
same,"Serum LDH, percent hepatoprotective activity",[4]; [6],(37.14) %
same,Serum TG,[4]; [6],56.59±2.42 mg %
same,"Serum TG, percent hepatoprotective activity",[4]; [6],(41.39) %
same,Hepatic GSH (glutathione),[4]; [7],4.15±0.15 µ mole GSH/g liver
same,"Hepatic GSH, percent hepatoprotective activity",[4]; [7],(49.26) %
same,Hepatic LP (lipid peroxidation),[4]; [7],50.62±2.23 n mole MDA/g liver
same,"Hepatic LP, percent hepatoprotective activity",[4]; [7],(51.45) %
same,Hepatic Protein,[4]; [7],148.36±3.57 mg %
same,"Hepatic Protein, percent hepatoprotective activity",[4]; [7],(37.92) %
same,Serum ALP,[4]; [7],43.92±2.19 µ mole of p-nitrophenol formed /min/L
same,"Serum ALP, percent hepatoprotective activity",[4]; [7],(53.04) %
same,Serum Albumin,[4]; [7],3.32±0.15 g %
same,"Serum Albumin, percent hepatoprotective activity",[4]; [7],(49.25) %
same,Serum GOT,[4]; [7],720.76±50.62 Units
same,"Serum GOT, percent hepatoprotective activity",[4]; [7],(41.40) %
same,Serum GPT,[4]; [7],881.23±36.85 Units
same,"Serum GPT, percent hepatoprotective activity",[4]; [7],(45.45) %
same,Serum LDH,[4]; [7],1014.27±44.04 units
same,"Serum LDH, percent hepatoprotective activity",[4]; [7],(51.34) %
same,Serum TG,[4]; [7],51.68±2.73 mg %
same,"Serum TG, percent hepatoprotective activity",[4]; [7],(52.92) %
same,Hepatic GSH (glutathione),[4]; [8],4.400±0.25 µ mole GSH/g liver
same,"Hepatic GSH, percent hepatoprotective activity",[4]; [8],(57.35) %
same,Hepatic LP (lipid peroxidation),[4]; [8],47.90±1.93 n mole MDA/g liver
same,"Hepatic LP, percent hepatoprotective activity",[4]; [8],(58.35) %
same,Hepatic Protein,[4]; [8],155.34±3.11 mg %
same,"Hepatic Protein, percent hepatoprotective activity",[4]; [8],(52.27) %
same,Serum ALP,[4]; [8],40.18±2.03 µ mole of p-nitrophenol formed /min/L
same,"Serum ALP, percent hepatoprotective activity",[4]; [8],(63.88) %
same,Serum Albumin,[4]; [8],3.55±0.18 g %
same,"Serum Albumin, percent hepatoprotective activity",[4]; [8],(66.41) %
same,Serum GOT,[4]; [8],534.56±19.65 Units
same,"Serum GOT, percent hepatoprotective activity",[4]; [8],(60.14) %
same,Serum GPT,[4]; [8],760.73±49.35 Units
same,"Serum GPT, percent hepatoprotective activity",[4]; [8],(54.15) %
same,Serum LDH,[4]; [8],952.45±34.82 units
same,"Serum LDH, percent hepatoprotective activity",[4]; [8],(54.97) %
same,Serum TG,[4]; [8],49.22±1.78 mg %
same,"Serum TG, percent hepatoprotective activity",[4]; [8],(58.70) %
same,"Hepatic GSH, percent hepatoprotective activity",[4]; [9],57.35%
same,"Hepatic LP, percent hepatoprotective activity",[4]; [9],58.35%
same,"Hepatic Protein, percent hepatoprotective activity",[4]; [9],52.27%
same,"Serum ALP, percent hepatoprotective activity",[4]; [9],63.88%
same,"Serum Albumin, percent hepatoprotective activity",[4]; [9],66.41%
same,"Serum GOT, percent hepatoprotective activity",[4]; [9],60.14%
same,"Serum GPT, percent hepatoprotective activity",[4]; [9],54.15%
same,"Serum LDH, percent hepatoprotective activity",[4]; [9],54.97%
same,"Serum TG, percent hepatoprotective activity",[4]; [9],58.70%
same,"Hepatic GSH, percent hepatoprotective activity",[4]; [10],57.35%
same,"Hepatic LP, percent hepatoprotective activity",[4]; [10],58.35% and 55.35%
same,"Serum ALP, percent hepatoprotective activity",[4]; [10],63.88%
same,"Serum Albumin, percent hepatoprotective activity",[4]; [10],66.41%
same,"Serum GOT, percent hepatoprotective activity",[4]; [10],60.14%
same,"Serum GPT, percent hepatoprotective activity",[4]; [10],54.15%
same,"Serum LDH, percent hepatoprotective activity",[4]; [10],54.97%
same,"Serum TG, percent hepatoprotective activity",[4]; [10],58.70%
same,Hepatic GSH (glutathione),[4]; [11],6.40±0.21 µ mole GSH/g liver
same,Hepatic LP (lipid peroxidation),[4]; [11],31.60±2.09 n mole MDA/g liver
same,Hepatic Protein,[4]; [11],182.05±10.23 mg %
same,Serum ALP,[4]; [11],27.72±2.71 µ mole of p-nitrophenol formed /min/L
same,Serum Albumin,[4]; [11],3.96±0.08 g %
same,Serum GOT,[4]; [11],134.92±4.25 Units
same,Serum GPT,[4]; [11],126.11±3.09 Units
same,Serum LDH,[4]; [11],181.02±10.29 units
same,Serum TG,[4]; [11],32.29±2.31 mg %
same,Hepatic GSH (glutathione),[4]; [12],4.60±0.24 µ mole GSH/g liver
same,"Hepatic GSH, percent hepatoprotective activity",[4]; [12],(60.29) %
same,Hepatic LP (lipid peroxidation),[4]; [12],45.30±2.08 n mole MDA/g liver
same,"Hepatic LP, percent hepatoprotective activity",[4]; [12],(64.95) %
same,Hepatic Protein,[4]; [12],146.78±5.09 mg %
same,"Hepatic Protein, percent hepatoprotective activity",[4]; [12],(34.66) %
same,Serum ALP,[4]; [12],44.14±2.24 µ mole of p-nitrophenol formed /min/L
same,"Serum ALP, percent hepatoprotective activity",[4]; [12],(52.40) %
same,Serum Albumin,[4]; [12],3.38±0.26 g %
same,"Serum Albumin, percent hepatoprotective activity",[4]; [12],(53.73) %
same,Serum GOT,[4]; [12],795.92±27.59 Units
same,"Serum GOT, percent hepatoprotective activity",[4]; [12],(34.12) %
same,Serum GPT,[4]; [12],764.37±44.32 Units
same,"Serum GPT, percent hepatoprotective activity",[4]; [12],(53.89) %
same,Serum LDH,[4]; [12],1256.05±33.97 units
same,"Serum LDH, percent hepatoprotective activity",[4]; [12],(37.11) %
same,Serum TG,[4]; [12],47.39±2.13 mg %
same,"Serum TG, percent hepatoprotective activity",[4]; [12],(63.00) %
